This data set is described as follows: activity coefficient (dimensionless); of the first substance listed, at infinite dilution; xn = mol fraction of the nth substance listed. The settings on record: Liquid, Chromatography, x1 = 0.

Numbers after ± are expanded uncertainties.

As to `Cc1ccccc1C` [1,2-dimethylbenzene] + CCCCn1cc[n+](C)c1.N#CN=C=[N-], the activity coefficient is, setting by setting: (318.15 K) 3.82 ± 0.26; (328.15 K) 3.97 ± 0.27; (338.15 K) 4.12 ± 0.28; (348.15 K) 4.27 ± 0.29; (358.15 K) 4.42 ± 0.3; (368.15 K) 4.57 ± 0.31.
`Cc1cccc(C)c1` [1,3-dimethylbenzene] + CCCCn1cc[n+](C)c1.N#CN=C=[N-]: the activity coefficient is 4.65 ± 0.32 (318.15 K); 4.82 ± 0.33 (328.15 K); 5.03 ± 0.34 (338.15 K); 5.19 ± 0.35 (348.15 K); 5.38 ± 0.37 (358.15 K); 5.56 ± 0.38 (368.15 K).
For the compound `Cc1ccc(C)cc1` [1,4-dimethylbenzene] + CCCCn1cc[n+](C)c1.N#CN=C=[N-], the activity coefficient runs as follows: (318.15 K) 4.44 ± 0.3; (328.15 K) 4.62 ± 0.31; (338.15 K) 4.82 ± 0.33; (348.15 K) 5 ± 0.34; (358.15 K) 5.18 ± 0.35; (368.15 K) 5.37 ± 0.37.
In the case of `C1COCCO1` [1,4-dioxane] + CCCCn1cc[n+](C)c1.N#CN=C=[N-], the activity coefficient was 1.06 ± 0.07 (318.15 K); 1.13 ± 0.07 (328.15 K); 1.21 ± 0.08 (338.15 K); 1.28 ± 0.08 (348.15 K); 1.36 ± 0.09 (358.15 K); 1.43 ± 0.09 (368.15 K).
`C=CCCCCCCCC` [1-decene] + CCCCn1cc[n+](C)c1.N#CN=C=[N-]: the activity coefficient came to 134 ± 9 (318.15 K); 128 ± 9 (328.15 K); 123 ± 8 (338.15 K); 119 ± 8 (348.15 K); 115 ± 8 (358.15 K); 111 ± 8 (368.15 K).
With `C=CCCCCC` [1-heptene] + CCCCn1cc[n+](C)c1.N#CN=C=[N-], the activity coefficient stood at 39 ± 2.7 (318.15 K); 38.5 ± 2.6 (328.15 K); 38.1 ± 2.6 (338.15 K); 37.7 ± 2.6 (348.15 K); 37.3 ± 2.6 (358.15 K); 37 ± 2.5 (368.15 K).
On to `C#CCCCCC` [1-heptyne] + CCCCn1cc[n+](C)c1.N#CN=C=[N-], for which the activity coefficient reads like this: (318.15 K) 8.24 ± 0.56; (328.15 K) 8.61 ± 0.59; (338.15 K) 9.02 ± 0.62; (348.15 K) 9.42 ± 0.64; (358.15 K) 9.77 ± 0.67; (368.15 K) 10.2 ± 0.7.
In the case of `C#CCCCC` [1-hexyne] + CCCCn1cc[n+](C)c1.N#CN=C=[N-], the activity coefficient by setting is: (318.15 K) 5.43 ± 0.37; (328.15 K) 5.76 ± 0.39; (338.15 K) 6.12 ± 0.42; (348.15 K) 6.49 ± 0.44; (358.15 K) 6.85 ± 0.47; (368.15 K) 7.23 ± 0.49.
In the case of `CCC[N+](=O)[O-]` [1-nitropropane] + CCCCn1cc[n+](C)c1.N#CN=C=[N-], the activity coefficient was 1.26 ± 0.08 (318.15 K); 1.31 ± 0.09 (328.15 K); 1.36 ± 0.09 (338.15 K); 1.41 ± 0.09 (348.15 K); 1.45 ± 0.1 (358.15 K); 1.5 ± 0.1 (368.15 K).
In the case of `C#CCCCCCC` [1-octyne] + CCCCn1cc[n+](C)c1.N#CN=C=[N-], the activity coefficient is, setting by setting: (318.15 K) 12.5 ± 0.9; (328.15 K) 13 ± 0.9; (338.15 K) 13.4 ± 0.9; (348.15 K) 13.9 ± 1; (358.15 K) 14.4 ± 1; (368.15 K) 14.8 ± 1.
In the case of `C=CCCC` [1-pentene] + CCCCn1cc[n+](C)c1.N#CN=C=[N-], the activity coefficient by setting is: (318.15 K) 17.3 ± 1.2; (328.15 K) 17.3 ± 1.2; (338.15 K) 17.3 ± 1.2; (348.15 K) 17.3 ± 1.2; (358.15 K) 17.3 ± 1.2; (368.15 K) 17.3 ± 1.2.
As to `C#CCCC` [1-pentyne] + CCCCn1cc[n+](C)c1.N#CN=C=[N-], the activity coefficient by setting is: (318.15 K) 3.7 ± 0.3; (328.15 K) 3.94 ± 0.27; (338.15 K) 4.16 ± 0.28; (348.15 K) 4.38 ± 0.3; (358.15 K) 4.6 ± 0.3; (368.15 K) 4.84 ± 0.33.
In the case of `CC(C)CC(C)(C)C` [2,2,4-trimethylpentane] + CCCCn1cc[n+](C)c1.N#CN=C=[N-], the activity coefficient (318.15 K) was 111 ± 8; the activity coefficient (328.15 K) was 105 ± 7; the activity coefficient (338.15 K) was found to be 101 ± 7; the activity coefficient (348.15 K) worked out at 96.5 ± 6.6; the activity coefficient (358.15 K) was determined as 92.8 ± 6.4; the activity coefficient (368.15 K) stood at 89.2 ± 6.1.
As to `CCC(C)(C)C` [2,2-dimethylbutane] + CCCCn1cc[n+](C)c1.N#CN=C=[N-], the activity coefficient runs as follows: (318.15 K) 53.6 ± 3.7; (328.15 K) 51.7 ± 3.5; (338.15 K) 50.1 ± 3.4; (348.15 K) 48.7 ± 3.3; (358.15 K) 47.4 ± 3.2; (368.15 K) 46 ± 3.1.
Take `CCOC(C)(C)C` [2-ethoxy-2-methylpropane] + CCCCn1cc[n+](C)c1.N#CN=C=[N-]: the activity coefficient (318.15 K) was 18.1 ± 1.2; the activity coefficient (328.15 K) amounted to 18.4 ± 1.3; the activity coefficient (338.15 K) is 18.7 ± 1.3; the activity coefficient (348.15 K) is 19.1 ± 1.3; the activity coefficient (358.15 K) was found to be 19.3 ± 1.3; the activity coefficient (368.15 K) was 19.7 ± 1.3.
Turning to `CCC(C)(C)OC` [2-methoxy-2-methylbutane] + CCCCn1cc[n+](C)c1.N#CN=C=[N-], the activity coefficient by setting is: (318.15 K) 10.7 ± 0.7; (328.15 K) 11.1 ± 0.8; (338.15 K) 11.5 ± 0.8; (348.15 K) 11.8 ± 0.8; (358.15 K) 12.2 ± 0.8; (368.15 K) 12.5 ± 0.9.
Take `COC(C)(C)C` [2-methoxy-2-methylpropane] + CCCCn1cc[n+](C)c1.N#CN=C=[N-]: the activity coefficient is, setting by setting: (318.15 K) 7.13 ± 0.49; (328.15 K) 7.47 ± 0.51; (338.15 K) 7.8 ± 0.53; (348.15 K) 8.14 ± 0.56; (358.15 K) 8.46 ± 0.58; (368.15 K) 8.8 ± 0.6.
For the compound `CC(C)CO` [2-methyl-1-propanol] + CCCCn1cc[n+](C)c1.N#CN=C=[N-], the activity coefficient reads like this: (318.15 K) 1.08 ± 0.07; (328.15 K) 1.08 ± 0.07; (338.15 K) 1.09 ± 0.07; (348.15 K) 1.09 ± 0.07; (358.15 K) 1.09 ± 0.07; (368.15 K) 1.09 ± 0.07.
As to `CC(C)(C)O` [2-methylpropan-2-ol] + CCCCn1cc[n+](C)c1.N#CN=C=[N-], the activity coefficient runs as follows: (318.15 K) 1.11 ± 0.07; (328.15 K) 1.14 ± 0.07; (338.15 K) 1.16 ± 0.07; (348.15 K) 1.19 ± 0.08; (358.15 K) 1.21 ± 0.08; (368.15 K) 1.24 ± 0.08.
Turning to `CCC(C)CC` [3-methylpentane] + CCCCn1cc[n+](C)c1.N#CN=C=[N-], the activity coefficient runs as follows: (318.15 K) 53.7 ± 3.7; (328.15 K) 51.7 ± 3.5; (338.15 K) 50 ± 3.4; (348.15 K) 48.4 ± 3.3; (358.15 K) 47.1 ± 3.2; (368.15 K) 45.6 ± 3.1.
`C=C(C)c1ccccc1` [(1-methylethenyl)benzene] + CCCCn1cc[n+](C)c1.N#CN=C=[N-]: the activity coefficient was 3.3 ± 0.2 (318.15 K); 3.53 ± 0.24 (328.15 K); 3.79 ± 0.26 (338.15 K); 4.02 ± 0.27 (348.15 K); 4.26 ± 0.29 (358.15 K); 4.51 ± 0.31 (368.15 K).
Consider `CC(C)=O` [acetone] + CCCCn1cc[n+](C)c1.N#CN=C=[N-], for which the activity coefficient by setting is: (318.15 K) 1 ± 0.06; (328.15 K) 1.05 ± 0.07; (338.15 K) 1.11 ± 0.07; (348.15 K) 1.16 ± 0.07; (358.15 K) 1.22 ± 0.08; (368.15 K) 1.27 ± 0.08.
Take `CC#N` [acetonitrile] + CCCCn1cc[n+](C)c1.N#CN=C=[N-]: the activity coefficient runs as follows: (318.15 K) 0.781 ± 0.051; (328.15 K) 0.813 ± 0.053; (338.15 K) 0.844 ± 0.054; (348.15 K) 0.876 ± 0.056; (358.15 K) 0.904 ± 0.057; (368.15 K) 0.934 ± 0.059.
For the compound `c1ccccc1` [benzene] + CCCCn1cc[n+](C)c1.N#CN=C=[N-], the activity coefficient worked out at 1.87 ± 0.13 (318.15 K); 1.95 ± 0.13 (328.15 K); 2.03 ± 0.14 (338.15 K); 2.11 ± 0.14 (348.15 K); 2.19 ± 0.15 (358.15 K); 2.28 ± 0.16 (368.15 K).
For `CCCCO` [butan-1-ol] + CCCCn1cc[n+](C)c1.N#CN=C=[N-], the activity coefficient (318.15 K) is 1.1 ± 0.07; the activity coefficient (328.15 K) stood at 1.11 ± 0.07; the activity coefficient (338.15 K) turned out to be 1.12 ± 0.07; the activity coefficient (348.15 K) was 1.13 ± 0.07; the activity coefficient (358.15 K) was found to be 1.14 ± 0.07; the activity coefficient (368.15 K) is 1.15 ± 0.07.
In the case of `CCC(C)O` (stereo not drawn) [butan-2-ol] + CCCCn1cc[n+](C)c1.N#CN=C=[N-], the activity coefficient came to 1.13 ± 0.07 (318.15 K); 1.14 ± 0.07 (328.15 K); 1.16 ± 0.07 (338.15 K); 1.17 ± 0.07 (348.15 K); 1.18 ± 0.08 (358.15 K); 1.19 ± 0.08 (368.15 K).
For `CCCC=O` [butanal] + CCCCn1cc[n+](C)c1.N#CN=C=[N-], the activity coefficient came out at 1.61 ± 0.11 (318.15 K); 1.67 ± 0.11 (328.15 K); 1.74 ± 0.12 (338.15 K); 1.8 ± 0.12 (348.15 K); 1.87 ± 0.13 (358.15 K); 1.93 ± 0.13 (368.15 K).
As for `C1CCCCCC1` [cycloheptane] + CCCCn1cc[n+](C)c1.N#CN=C=[N-], the activity coefficient (318.15 K) was 32.6 ± 2.2; the activity coefficient (328.15 K) is 31.2 ± 2.1; the activity coefficient (338.15 K) is 30.1 ± 2.1; the activity coefficient (348.15 K) amounted to 29.1 ± 2; the activity coefficient (358.15 K) worked out at 28.1 ± 1.9; the activity coefficient (368.15 K) was determined as 27.3 ± 1.9.
